Key:
myeloid cell compartment = experiment: Flow cytometry of leukocytes and myeloid cell compartment in blood, spleen and allograft of heart transplant recipients; format: in vivo, mice; details: six days after transplantation
Source text: The leukocyte population was profiled and, more extensively, the myeloid cell compartment, including neutrophils. Mo/MΦ and DC, in the blood, spleens and allografts of mice receiving placebo, oral rapamycin (Oral-Ra) and mTOR-HDL treatments, where the treatment regimen involved three intravenous mTOR-HDL injections, on the day of, as well as at two and five days post transplantation.
Mo/MΦ comprise two different subsets (Ly-6C^hi and Ly-6C^lo) with district migratory properties^23. Six days after transplantation, untreated and Oral-Ra-treated mice had increased numbers of accumulated myeloid cells in their blood, spleen and heart allografts (FIG. 2B and FIG. 9A). Further, the elevated Mo/MΦ populations contained high percentages of inflammatory Ly6C^hi monocytes (FIGS. 9A and 2B). […] The Mo/MΦ subset proportions in the spleen and transplanted organs reflected the levels in peripheral blood (FIG. 1E).
Mouse hearts were rinsed in situ with HBSS with 1% heparin. Explanted hearts were cut into small pieces and digested for 40 minutes at 37° C. with 400 U/ml collagenase IV (Sigma-Aldrich), 10 mM HEPES (Cellgro) and 0.01% DNase 1 (MP Biomedicals) in HBSS (Cellgro). Digested suspensions were passed through a nylon mesh and centrifuged, and the cell pellet was re-suspended in complete HBSS, stained and analyzed by flow cytometry (BD LSR-II; BD Biosciences).
For myeloid cell staining, fluorochrome-conjugated mAbs specific to mouse CD45 (clone 30-F11). CD11b (clone MI/70), CD11c (clone N418), F4/80 (clone CI:A3.1). Ly-6C (clone HK1.4) and corresponding isotype controls were purchased from eBioscience. Ly-6G (clone 1A8) mAb was purchased from Biolegend. F4/80 (clone CI:A3.1) was purchased from AbD Serotec. […] Flow cytometric analysis was performed on LSR II (BD Biosciences) and analyzed with FlowJo software (Tree Star, Inc.). Results are expressed as percentage of cells staining or cells counting (cells per milliliter) above background. mAbs were titered at regular intervals during the course of these studies to ensure the use of saturating concentrations. […]

cardiac allografts = experiment: Heart allograft survival (BALB/c into C57BL/6); format: in vivo, mice; details: over a 50-day period, three doses 5 mg/kg rapamycin
Description: Lastly, nanoimmunotherapy treatment's capacity to prevent organ rejection and prolong allograft survival was evaluated. Balb/c (H2^d) donor cardiac allografts were transplanted into fully allogeneic C57Bl/6 (H2) recipients treated with: (1) placebo. […] To assess graft survival, recipients underwent abdominal palpation until cardiac contractions completely ceased.
BALB/c hears were transplanted as fully vascularized heterotopic grafts into C57BL/6 mice as previously described^45. […] Cardiac allograft survival was subsequently assessed through daily palpation. Rejection was defined as the complete cessation of cardiac contraction and was confirmed by direct visualization at laparotomy. Graft survival was compared among groups using Kaplan-Meier survival analysis.

[1] = mouse, in vivo, po
[2] = system: RAW 264.7 cell line of murine macrophages; experiment: In vitro BrdU incorporation in RAW 264.7 macrophages; format: cell-based; details: 24 hours

SMILES: CO[C@H]1C[C@@H]2CC[C@@H](C)[C@@](O)(O2)C(=O)C(=O)N2CCCC[C@H]2C(=O)O[C@H]([C@H](C)C[C@@H]2CC[C@@H](O)[C@H](OC)C2)CC(=O)[C@H](C)/C=C(\C)[C@@H](O)[C@@H](OC)C(=O)[C@H](C)C[C@H](C)/C=C/C=C/C=C/1C [Oral-Ra, rapamycin]
- Ly-C^lo monocytes in blood (myeloid cell compartment): 13%
- Ly-C^lo monocytes in heart allografts (myeloid cell compartment): 18%
- Ly-C^lo monocytes in spleen (myeloid cell compartment): 44%
- allograft survival (cardiac allografts): 35%
- kidney toxicity parameters [1]: statistical differences between Oral-Ra and mTOR-HDL

SMILES: Cc1ccc(C)c(N/C=C/C(=O)c2ccccc2)c1 [compound 6877002, (2E)-1-phenyl-3-(2,5-dimethylanilino)-2-propen-1one]
- proliferation rate of RAW 264.7 macrophages [2]: did not affect the proliferation rate
